Measured values taken from article PMC5691139, “Structural and functional studies of SAV0551 from Staphylococcus aureus as a chaperone and glyoxalase III” (Bioscience Reports, 2017).

Experiments:
SAV0551 [1] = biological target: T1, SAV0551 (Staphylococcus aureus, UniProt P64312); test: 1D 1H NMR; format: biochemical; settings: 60 mM methylglyoxal, 50 µM enzyme, 20 mM HEPES pH 7.5, 50 mM KCl, 2 mM DTT, 37°C
T1 construct: gene hchA; monomer ~32 kDa, dimer ~64 kDa
T1 sequence (P64312 1-292): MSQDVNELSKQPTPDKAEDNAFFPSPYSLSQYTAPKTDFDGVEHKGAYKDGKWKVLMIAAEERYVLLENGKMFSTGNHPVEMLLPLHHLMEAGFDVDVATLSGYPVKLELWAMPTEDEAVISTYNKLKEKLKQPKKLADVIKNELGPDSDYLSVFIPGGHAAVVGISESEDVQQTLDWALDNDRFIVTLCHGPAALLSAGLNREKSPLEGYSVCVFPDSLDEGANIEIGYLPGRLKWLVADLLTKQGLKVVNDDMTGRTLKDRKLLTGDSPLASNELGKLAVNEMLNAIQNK

SAV0551 [2] = biological target: T1, SAV0551; test: X-ray crystal structure of the complex, […] Å; format: binding; settings: co-crystal with 50 mM glyoxylate, 30% PEG3350, 100 mM BisTris pH 6.5, 293 K; active site at Cys190; additional glyoxylate in aspartate-rich cleft between non-dimer chains
SAV0551 [3] = biological target: T1, SAV0551; test: 1D 1H NMR and DNPH absorbance ([…] nm) of remaining methylglyoxal; format: biochemical; settings: no cofactor; 20 mM HEPES pH 7.5, 50 mM KCl, 2 mM DTT, 37°C; 60 mM (NMR) or 6 mM substrate; 50 or 10 µM enzyme
[4] = biological target: the molecule itself; test: SEC; size-exclusion chromatography in solution; conditions not told for this result (the purification used Superdex 75 10/300 GL in 50 mM Tris pH 7.5, 0.15 M NaCl)

C[C@@H](O)C(=O)O [D-lactate]
1D 1H NMR (SAV0551 [1]): new peaks that correspond to the D-lactate produced by SAV0551

O=CC(=O)O [glyoxylate]
X-ray crystal structure of the complex, 3.01 Å (SAV0551 [2]): 5XR3 for SAV0551 with glyoxylate

CC(=O)C=O [methylglyoxal]
1D 1H NMR and DNPH absorbance (550 nm) of remaining methylglyoxal (SAV0551 [3]): methylglyoxal can be used as a substrate for SAV0551 to produce D-lactate

B1: SAV0551 from Staphylococcus aureus Mu50 (natural protein, UniProt P64312 1-292, looked up)
chain: T1 sequence (P64312 1-292)
notes: SAV0551, Hsp-type DJ-1/ThiJ/PfpI superfamily protein (Hsp31 homologue, glyoxalase III) of Staphylococcus aureus Mu50 (ATCC 700699); predicted ORF amplified from genomic DNA into pET-21a(+) NdeI/XhoI; monomer ~32 kDa; also called wild-type SAV0551; native SAV0551; source: E. coli BL21(DE3), purified (Ni-NTA, Superdex 75)
stoichiometry N [4]: 2
